Measured values reported in patent US11725011B2, “Bicyclic urea kinase inhibitors and uses thereof” (The Broad Institute, Inc., priority 2016, dated 2023).

How the values were obtained:
Assay in all cases: KINOMEscan
Format in all cases: binding
Details in all cases: 1 uM
YSK4 = YSK4 (Homo sapiens (Human), UniProt Q56UN5)
PIK3CA (E545K) = PIK3CA (E545K) (Homo sapiens (Human), UniProt P42336, E545K)
AXL = AXL (Homo sapiens (Human), UniProt P30530)
RIOK3 = RIOK3 (Homo sapiens (Human), UniProt O14730)
BRAF = BRAF (Homo sapiens (Human), UniProt P15056)
[1] = molecular target: ABL1 (H396P)-nonphosphorylated (Homo sapiens (Human), UniProt P00519, H396P)
PAK2 = PAK2 (Homo sapiens (Human), UniProt Q13177)
BUB1 = BUB1 (Homo sapiens (Human), UniProt O43683)
p38-beta = p38-beta (Homo sapiens (Human), UniProt Q15759)
EGFR = EGFR (Homo sapiens (Human), UniProt P00533)
ALK (C1156Y) = ALK (C1156Y) (Homo sapiens (Human), UniProt Q9UM73, C1156Y)
HIPK4 = HIPK4 (Homo sapiens (Human), UniProt Q8NE63)
Sequence of HIPK4 (Q8NE63 whole entry): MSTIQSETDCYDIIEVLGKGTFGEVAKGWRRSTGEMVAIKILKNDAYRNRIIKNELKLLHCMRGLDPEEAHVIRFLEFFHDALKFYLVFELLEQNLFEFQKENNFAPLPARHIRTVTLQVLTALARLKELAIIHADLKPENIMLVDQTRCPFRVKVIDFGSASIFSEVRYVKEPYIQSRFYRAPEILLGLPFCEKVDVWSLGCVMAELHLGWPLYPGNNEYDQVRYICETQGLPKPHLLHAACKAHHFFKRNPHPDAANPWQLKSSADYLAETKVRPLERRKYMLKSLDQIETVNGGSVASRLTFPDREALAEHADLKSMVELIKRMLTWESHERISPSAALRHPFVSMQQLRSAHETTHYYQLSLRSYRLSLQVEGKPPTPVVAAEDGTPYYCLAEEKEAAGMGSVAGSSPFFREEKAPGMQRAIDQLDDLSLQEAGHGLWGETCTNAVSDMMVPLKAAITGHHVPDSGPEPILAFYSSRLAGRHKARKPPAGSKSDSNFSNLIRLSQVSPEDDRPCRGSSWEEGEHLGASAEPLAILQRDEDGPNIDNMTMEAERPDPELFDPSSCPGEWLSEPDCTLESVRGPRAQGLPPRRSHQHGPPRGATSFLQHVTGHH

Sequence of BRAF (P15056 whole entry): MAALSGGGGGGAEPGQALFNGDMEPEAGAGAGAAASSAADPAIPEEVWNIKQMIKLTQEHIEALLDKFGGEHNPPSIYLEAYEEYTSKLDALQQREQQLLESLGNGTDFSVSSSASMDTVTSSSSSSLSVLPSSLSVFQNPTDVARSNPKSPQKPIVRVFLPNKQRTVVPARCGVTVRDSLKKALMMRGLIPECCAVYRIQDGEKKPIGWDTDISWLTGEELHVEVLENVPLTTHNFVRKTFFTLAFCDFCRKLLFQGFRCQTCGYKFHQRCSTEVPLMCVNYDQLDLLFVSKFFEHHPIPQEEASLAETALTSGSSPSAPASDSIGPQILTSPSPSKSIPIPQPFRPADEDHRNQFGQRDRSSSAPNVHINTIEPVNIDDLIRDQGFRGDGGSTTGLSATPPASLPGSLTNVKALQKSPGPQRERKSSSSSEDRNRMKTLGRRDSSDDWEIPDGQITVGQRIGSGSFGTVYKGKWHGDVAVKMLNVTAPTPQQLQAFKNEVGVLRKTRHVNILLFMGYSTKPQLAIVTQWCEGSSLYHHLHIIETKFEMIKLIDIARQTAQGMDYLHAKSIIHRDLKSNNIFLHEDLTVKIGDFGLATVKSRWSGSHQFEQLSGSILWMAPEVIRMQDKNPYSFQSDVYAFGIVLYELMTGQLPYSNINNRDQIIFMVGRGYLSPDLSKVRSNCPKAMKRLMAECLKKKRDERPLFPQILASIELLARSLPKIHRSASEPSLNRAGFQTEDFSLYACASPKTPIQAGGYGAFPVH
Sequence of YSK4 (Q56UN5 whole entry): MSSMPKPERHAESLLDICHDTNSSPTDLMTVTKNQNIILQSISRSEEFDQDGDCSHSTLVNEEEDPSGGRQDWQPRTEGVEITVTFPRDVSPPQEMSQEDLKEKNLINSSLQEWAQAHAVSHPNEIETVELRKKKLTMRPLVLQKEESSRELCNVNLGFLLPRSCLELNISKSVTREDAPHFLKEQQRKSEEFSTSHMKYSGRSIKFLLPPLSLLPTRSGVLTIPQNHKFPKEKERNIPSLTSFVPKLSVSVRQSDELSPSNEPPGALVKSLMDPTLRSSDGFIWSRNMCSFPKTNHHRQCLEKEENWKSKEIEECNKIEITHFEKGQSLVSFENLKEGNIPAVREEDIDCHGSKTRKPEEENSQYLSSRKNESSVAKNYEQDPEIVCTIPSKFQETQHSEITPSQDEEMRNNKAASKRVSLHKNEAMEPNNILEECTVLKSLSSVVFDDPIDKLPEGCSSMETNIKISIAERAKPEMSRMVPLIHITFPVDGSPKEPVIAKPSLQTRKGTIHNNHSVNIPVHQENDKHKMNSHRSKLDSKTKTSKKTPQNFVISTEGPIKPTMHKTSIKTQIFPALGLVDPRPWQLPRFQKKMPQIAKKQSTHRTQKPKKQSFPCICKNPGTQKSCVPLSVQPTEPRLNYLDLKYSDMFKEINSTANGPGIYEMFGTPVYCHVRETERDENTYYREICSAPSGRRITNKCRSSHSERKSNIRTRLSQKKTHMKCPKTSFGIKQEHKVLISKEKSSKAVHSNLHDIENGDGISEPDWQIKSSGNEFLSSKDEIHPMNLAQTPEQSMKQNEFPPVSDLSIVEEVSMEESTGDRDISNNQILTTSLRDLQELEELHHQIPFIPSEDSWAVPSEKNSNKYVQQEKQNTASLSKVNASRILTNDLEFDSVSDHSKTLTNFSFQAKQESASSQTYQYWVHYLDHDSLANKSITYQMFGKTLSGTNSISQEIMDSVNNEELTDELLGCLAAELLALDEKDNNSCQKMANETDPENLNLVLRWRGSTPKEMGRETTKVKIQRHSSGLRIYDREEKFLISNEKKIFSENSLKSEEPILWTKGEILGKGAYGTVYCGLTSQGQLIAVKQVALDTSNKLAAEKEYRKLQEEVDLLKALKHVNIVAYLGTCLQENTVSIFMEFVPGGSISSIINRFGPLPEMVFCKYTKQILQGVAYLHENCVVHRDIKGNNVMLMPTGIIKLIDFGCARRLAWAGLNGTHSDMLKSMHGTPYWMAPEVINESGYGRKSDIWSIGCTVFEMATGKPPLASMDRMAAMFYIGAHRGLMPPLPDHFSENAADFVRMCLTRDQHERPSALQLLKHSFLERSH
Sequence of p38-beta (Q15759 whole entry): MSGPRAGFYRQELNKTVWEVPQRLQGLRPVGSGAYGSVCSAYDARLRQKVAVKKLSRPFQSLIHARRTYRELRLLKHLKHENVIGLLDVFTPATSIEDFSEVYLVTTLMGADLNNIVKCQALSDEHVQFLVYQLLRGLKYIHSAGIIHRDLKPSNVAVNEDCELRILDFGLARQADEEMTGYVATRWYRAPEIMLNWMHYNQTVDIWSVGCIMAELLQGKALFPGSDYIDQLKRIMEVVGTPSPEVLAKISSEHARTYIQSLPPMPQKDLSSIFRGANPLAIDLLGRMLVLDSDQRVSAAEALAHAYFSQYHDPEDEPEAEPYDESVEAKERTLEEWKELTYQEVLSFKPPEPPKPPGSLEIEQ
Sequence of ALK (C1156Y) (Q9UM73 19-1620 C1156Y): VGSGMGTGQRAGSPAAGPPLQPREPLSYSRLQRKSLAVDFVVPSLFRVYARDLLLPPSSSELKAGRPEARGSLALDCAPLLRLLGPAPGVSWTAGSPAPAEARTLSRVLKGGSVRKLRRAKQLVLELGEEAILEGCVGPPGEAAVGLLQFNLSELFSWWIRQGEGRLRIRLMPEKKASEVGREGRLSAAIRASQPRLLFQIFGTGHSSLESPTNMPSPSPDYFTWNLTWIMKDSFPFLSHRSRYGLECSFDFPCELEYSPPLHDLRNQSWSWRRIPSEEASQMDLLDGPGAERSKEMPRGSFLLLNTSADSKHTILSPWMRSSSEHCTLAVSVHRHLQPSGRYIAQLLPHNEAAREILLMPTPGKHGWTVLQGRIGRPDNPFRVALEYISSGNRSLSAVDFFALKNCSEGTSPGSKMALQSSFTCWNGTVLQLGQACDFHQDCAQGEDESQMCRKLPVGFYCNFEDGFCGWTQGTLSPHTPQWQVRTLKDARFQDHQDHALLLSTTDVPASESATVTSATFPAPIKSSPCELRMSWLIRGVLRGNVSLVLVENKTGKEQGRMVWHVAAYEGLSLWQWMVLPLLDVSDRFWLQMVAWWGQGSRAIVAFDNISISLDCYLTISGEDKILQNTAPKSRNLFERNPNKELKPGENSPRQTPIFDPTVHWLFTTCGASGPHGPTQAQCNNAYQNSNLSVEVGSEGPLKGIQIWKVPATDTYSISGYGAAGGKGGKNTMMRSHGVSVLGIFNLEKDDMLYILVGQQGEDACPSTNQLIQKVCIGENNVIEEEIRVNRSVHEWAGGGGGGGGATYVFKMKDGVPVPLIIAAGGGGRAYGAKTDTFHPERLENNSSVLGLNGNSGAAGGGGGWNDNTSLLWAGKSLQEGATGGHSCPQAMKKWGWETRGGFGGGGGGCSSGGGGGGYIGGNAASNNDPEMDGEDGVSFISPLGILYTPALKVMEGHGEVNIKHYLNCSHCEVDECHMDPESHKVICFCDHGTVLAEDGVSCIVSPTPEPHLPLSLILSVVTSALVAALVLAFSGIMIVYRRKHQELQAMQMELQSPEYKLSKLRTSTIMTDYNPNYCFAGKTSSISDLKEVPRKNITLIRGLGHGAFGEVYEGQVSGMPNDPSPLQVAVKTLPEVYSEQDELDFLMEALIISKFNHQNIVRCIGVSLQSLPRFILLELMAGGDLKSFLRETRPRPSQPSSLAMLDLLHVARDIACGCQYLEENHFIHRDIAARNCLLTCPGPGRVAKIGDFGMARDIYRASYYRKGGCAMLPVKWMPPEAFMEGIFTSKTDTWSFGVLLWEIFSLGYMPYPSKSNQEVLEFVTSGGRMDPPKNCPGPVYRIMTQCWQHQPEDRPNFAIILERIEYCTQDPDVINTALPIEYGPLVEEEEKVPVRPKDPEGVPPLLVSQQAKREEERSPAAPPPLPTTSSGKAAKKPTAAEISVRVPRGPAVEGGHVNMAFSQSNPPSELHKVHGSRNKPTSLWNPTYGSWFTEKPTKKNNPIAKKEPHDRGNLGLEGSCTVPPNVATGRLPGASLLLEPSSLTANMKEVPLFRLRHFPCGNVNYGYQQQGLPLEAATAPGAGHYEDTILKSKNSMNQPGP

## COc1ccc(N2C(=O)N(c3c(C)cccc3C)Cc3cnc(Nc4ccc(N5CCN(C)CC5)cc4)nc32)c(OC)c1 [HG-11-136-01]
YSK4
  KINOMEscan YSK4: 0.4
PIK3CA (E545K)
  KINOMEscan PIK3CA (E545K): 98
AXL
  KINOMEscan AXL: 25
RIOK3
  KINOMEscan RIOK3: 25
BRAF
  KINOMEscan BRAF: 26
[1]
  KINOMEscan ABL1 (H396P)-nonphosphorylated: 0
PAK2
  KINOMEscan PAK2: 61
BUB1
  KINOMEscan BUB1: 100
p38-beta
  KINOMEscan p38-beta: 3.1
EGFR
  KINOMEscan EGFR: 0.7
ALK (C1156Y)
  KINOMEscan ALK (C1156Y): 12
HIPK4
  KINOMEscan HIPK4: 51
